“Also recorded” adds a separate entry of the source.
What was measured:
[1] = Phase 1b and 2a clinical data; assay type: in vivo
Source text: It provides a competitive advantage over previously described compounds in that the present inventors have identified a novel proposed mechanism of action (MOA), which has been market validated (EGFR & cMet) and clinically validated (IGFR). […] Dose selection has also been determined.

EGFR [2] = molecular target: EGFR (Homo sapiens, UniProt P00533); assay: EGFR kinase inhibition / substrate phosphorylation (FIG. 6, 7); assay type: biochemical
in vivo [3] = conditions: CR: 1CD BR, rat, po
xenografts of Table 3 = assay: Efficacy in the xenografts of Table 3; assay type: in vivo; conditions: NCI-H209, AsPC-1, HPAC, SW850, MDA-MB435, Her-2 over expressing breast, LoVo, C4-I, neuroblastoma, NCI-H1264
c-met = c-met (Homo sapiens, UniProt P08581); assay: c-met kinase inhibition (FIG. 8); assay type: biochemical; conditions: data from 3 sources
IGF1R [4] = molecular target: T1, IGF1R (Homo sapiens, UniProt P08069); assay: IGF1R kinase inhibition (FIG. 7); assay type: biochemical; conditions: data from 3 sources
Target sequence in this assay (P08069 31-1367): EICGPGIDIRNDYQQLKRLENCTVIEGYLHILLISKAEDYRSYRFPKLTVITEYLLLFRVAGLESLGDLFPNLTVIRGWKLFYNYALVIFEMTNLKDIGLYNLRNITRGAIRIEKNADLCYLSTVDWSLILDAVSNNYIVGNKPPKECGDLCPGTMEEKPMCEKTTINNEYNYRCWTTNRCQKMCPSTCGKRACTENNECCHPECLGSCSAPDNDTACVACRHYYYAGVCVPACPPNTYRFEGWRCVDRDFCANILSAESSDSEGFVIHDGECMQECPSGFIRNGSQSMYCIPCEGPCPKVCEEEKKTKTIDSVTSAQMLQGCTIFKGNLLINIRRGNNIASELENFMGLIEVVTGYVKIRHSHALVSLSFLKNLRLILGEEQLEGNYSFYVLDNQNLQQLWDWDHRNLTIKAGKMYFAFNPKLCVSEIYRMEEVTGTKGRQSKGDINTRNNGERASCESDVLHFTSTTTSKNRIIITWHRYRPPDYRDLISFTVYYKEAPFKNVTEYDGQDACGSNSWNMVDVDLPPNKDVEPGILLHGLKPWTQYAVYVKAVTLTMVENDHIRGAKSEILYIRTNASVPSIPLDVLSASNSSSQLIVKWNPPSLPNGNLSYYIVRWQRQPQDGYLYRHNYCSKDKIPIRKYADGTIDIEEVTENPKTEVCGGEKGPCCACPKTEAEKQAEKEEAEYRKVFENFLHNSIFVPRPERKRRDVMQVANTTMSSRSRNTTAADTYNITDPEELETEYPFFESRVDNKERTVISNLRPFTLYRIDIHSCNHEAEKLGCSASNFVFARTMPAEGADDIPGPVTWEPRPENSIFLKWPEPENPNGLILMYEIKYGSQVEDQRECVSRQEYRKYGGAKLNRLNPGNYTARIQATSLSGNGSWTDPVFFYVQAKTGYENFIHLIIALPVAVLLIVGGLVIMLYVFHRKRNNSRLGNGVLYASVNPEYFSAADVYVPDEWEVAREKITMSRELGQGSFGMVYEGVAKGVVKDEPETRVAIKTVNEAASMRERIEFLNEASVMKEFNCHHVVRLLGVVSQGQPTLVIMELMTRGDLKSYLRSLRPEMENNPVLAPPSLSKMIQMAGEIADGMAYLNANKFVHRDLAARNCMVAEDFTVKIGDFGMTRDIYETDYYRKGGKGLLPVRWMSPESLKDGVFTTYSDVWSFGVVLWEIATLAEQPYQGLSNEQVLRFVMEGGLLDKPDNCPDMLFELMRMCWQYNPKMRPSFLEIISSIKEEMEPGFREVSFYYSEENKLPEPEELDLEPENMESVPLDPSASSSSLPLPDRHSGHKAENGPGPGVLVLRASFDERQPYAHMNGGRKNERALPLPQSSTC

EGFR [5] = assay: Total protein levels over time-course (FIG. 9); assay type: cell-based; conditions: 2, 4, 8 and 24 hours after treatment, compared to control
IGF-IR = assay: Total protein levels over time-course (FIG. 9); assay type: cell-based; conditions: 2, 4, 8 and 24 hours after treatment, compared to control
Beagle dogs [6] = assay: Multi-dose oral toxicity, dogs; assay type: in vivo, dog
Description: A dog 28-day multi-dose toxicology assessment was also conducted.

IGF1R [7] = molecular target: T1, IGF1R; assay: IGF-1R tyrosine kinase assay with poly Glu4:Tyr1 (PGT) substrate, Lineweaver-Burke analysis; assay type: biochemical; set-up: made in house; host or cells: CHO-IGFR cells
Description: FIG. 1. […] Tyrosine kinase substrate Glu4: Tyr1 was bound to 96 well plates. […] Phosphorylation of substrate was determined by anti-phosphotyrosine ELISA**.
A Lineweaver-Burke analysis was used to calculate Km and Vmax for this reaction (FIG. 1).
Soluble IGF-1R, partially purified from CHO-IGFR cells were incubated with 10 nM IGF-1 in Kinase Buffer (50 mM, pH 7.4, 150 mM NaCl, 0.1% Triton X-100, 0.1% gelatin, 5 mM MnCl2, 8 mM MgCl2, and 1 mM PMSF) for 1 hr at room temperature (RT). […] Labeled ^32P-ATP (20 μM) was added in the presence of varying concentrations of the tyrosine kinase substrate poly Glu4:Tyr1 (PGT) (0.005 to 4 mg/ml). The reaction was stopped after 30 min at 22° C. by blotting 40 μl of the reaction mixture onto Whatman 3 MM papers. Filter papers were air dried and then subjected to the following washing protocol in 10% TCA with 10 mM Na4P2O7: 15 min at 4° C., 15 min at 20° C., 5 min boiling, 5 min boiling, followed by a short rinse with acetone. The filter papers were then allowed to air dry completely. ^32P incorporation into the substrate was determined by liquid scintillation counting.
Target sequence in this assay (P08069 741-1367 limits assumed): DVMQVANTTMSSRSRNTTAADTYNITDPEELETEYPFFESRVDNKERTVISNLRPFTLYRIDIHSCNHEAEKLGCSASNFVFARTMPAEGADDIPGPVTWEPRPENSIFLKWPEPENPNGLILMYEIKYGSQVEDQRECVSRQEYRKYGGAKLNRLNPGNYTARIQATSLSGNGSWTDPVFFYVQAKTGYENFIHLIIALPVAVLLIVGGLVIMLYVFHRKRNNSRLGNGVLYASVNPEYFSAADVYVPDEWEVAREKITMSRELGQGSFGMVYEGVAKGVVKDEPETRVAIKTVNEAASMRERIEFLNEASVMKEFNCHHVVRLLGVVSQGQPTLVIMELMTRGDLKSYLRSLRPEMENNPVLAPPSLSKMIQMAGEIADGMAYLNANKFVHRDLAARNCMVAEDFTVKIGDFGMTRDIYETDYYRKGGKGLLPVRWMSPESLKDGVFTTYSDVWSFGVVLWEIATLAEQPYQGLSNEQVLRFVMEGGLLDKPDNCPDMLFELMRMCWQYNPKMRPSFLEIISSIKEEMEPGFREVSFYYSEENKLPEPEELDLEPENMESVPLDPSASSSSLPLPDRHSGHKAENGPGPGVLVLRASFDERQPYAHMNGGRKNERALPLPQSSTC
Target sequence in this assay (P08069 31-736 partner limits assumed): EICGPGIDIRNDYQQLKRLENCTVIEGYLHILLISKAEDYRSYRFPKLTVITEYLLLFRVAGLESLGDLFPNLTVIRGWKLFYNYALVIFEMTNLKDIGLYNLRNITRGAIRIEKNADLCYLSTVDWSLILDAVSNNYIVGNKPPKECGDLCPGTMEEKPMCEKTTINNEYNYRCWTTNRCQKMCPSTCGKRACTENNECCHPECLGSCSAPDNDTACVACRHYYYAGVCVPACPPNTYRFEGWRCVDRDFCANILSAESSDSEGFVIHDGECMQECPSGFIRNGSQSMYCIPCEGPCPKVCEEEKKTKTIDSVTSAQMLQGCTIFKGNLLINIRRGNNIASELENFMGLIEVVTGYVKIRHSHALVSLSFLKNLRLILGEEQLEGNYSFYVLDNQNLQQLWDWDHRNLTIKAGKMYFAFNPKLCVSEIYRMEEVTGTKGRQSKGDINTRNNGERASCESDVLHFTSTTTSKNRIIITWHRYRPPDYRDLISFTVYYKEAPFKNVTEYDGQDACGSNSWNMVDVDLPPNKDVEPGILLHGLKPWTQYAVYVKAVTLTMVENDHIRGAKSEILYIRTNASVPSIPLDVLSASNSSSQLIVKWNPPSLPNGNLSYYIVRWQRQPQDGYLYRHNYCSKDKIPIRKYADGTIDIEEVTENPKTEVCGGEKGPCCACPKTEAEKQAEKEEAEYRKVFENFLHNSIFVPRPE
Target sequence in this assay (P05019 49-118 partner limits assumed): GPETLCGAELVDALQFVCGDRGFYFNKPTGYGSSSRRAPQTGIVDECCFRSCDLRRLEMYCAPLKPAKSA

IGF1R [8] = molecular target: T1, IGF1R; assay: ATP binding competition assay
Description: Next, competition with ATP was determined directly by employing an assay previously validated to quantify the Km for small molecule kinase inhibitors compete for ATP binding to various kinases (Goldstein et al. 2008).
Target sequence in this assay (P08069 999-1274 limits assumed): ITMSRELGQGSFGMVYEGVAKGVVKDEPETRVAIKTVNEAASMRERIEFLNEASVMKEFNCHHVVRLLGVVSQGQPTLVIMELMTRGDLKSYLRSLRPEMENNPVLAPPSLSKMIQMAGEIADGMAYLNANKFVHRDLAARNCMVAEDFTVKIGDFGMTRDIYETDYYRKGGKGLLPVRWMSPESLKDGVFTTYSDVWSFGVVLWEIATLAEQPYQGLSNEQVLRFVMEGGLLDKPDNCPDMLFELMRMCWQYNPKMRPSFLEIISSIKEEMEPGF

Beagle dogs [9] = assay: Multi-dose toxicity (dose escalation), dogs; assay type: in vivo
HER2 = assay: Total protein levels over time-course (FIG. 9); assay type: cell-based; conditions: 2, 4, 8 and 24 hours after treatment, compared to control
in vivo [10] = conditions: New Zealand white, rabbit, po
Met = assay: Total protein levels over time-course (FIG. 9); assay type: cell-based; conditions: 2, 4, 8 and 24 hours after treatment, compared to control
Sprague Dawley rats = assay: 28-day multi-dose oral toxicity, rats; assay type: in vivo, rat
Description: A rat 28-day multi-dose toxicology assessment was conducted at 15, 150, or 500 mg/kg/day.

H1975 NSCLC cells = assay: Soft agar colony formation; assay type: cell-based; conditions: H1975, Iressa®-resistant NSCLC cells (T790M), 11 days
Description: FIG. 10. […] Colony formation was determined and results reported normalized to control values as illustrated in FIG. 10.
Colony formation was determined and results reported normalized to control values as illustrated in FIG. 10.

[11] = test system: New Zealand white rabbits; conditions: rabbit, in vivo, po, 14 days
[12] = test system: second pancreatic xenograft; assay: Second pancreatic xenograft tumor growth (FIG. 19); assay type: in vivo
Source text: FIG. 19. […] Tumor volume is shown (y axis) at various time days post tumor challenge (x axis).

NSCLC xenograft = NSCLC xenograft tumor growth (FIG. 16); assay type: in vivo; conditions: 3 weeks post-tumor challenge
Source text: FIG. 16. […] Tumor volume is shown (y axis) at […], 2.5 and 3 weeks post tumor challenge (x axis).

KDR (VEGFR2) = KDR (VEGFR2) (Homo sapiens, UniProt P35968); assay: KDR (VEGFR2) kinase inhibition; assay type: biochemical; conditions: data from 3 sources
Source text: The inhibition of these targets appears to be via a mechanism of action that is distinct from approved tyrosine kinase inhibitors (TKIs).

[13] = test system: Tarceva® resistant cell lines (Kras mutants, EGFR mutants, T790M mutation); assay: Growth of Tarceva resistant cell lines (FIG. 11); assay type: cell-based; conditions: growth compared to untreated cells
Source text: FIG. 11. […] Growth is shown on the y axis compared to untreated cells. A description of the mutations in the cell lines are identified below in Table 1.

pancreatic xenograft = assay: Pancreatic xenograft tumor growth (FIG. 18); assay type: in vivo
Source text: FIG. 18. […] Tumor volume is shown (y axis) at various time days post tumor challenge (x axis).

breast xenograft = assay: Breast xenograft tumor growth (FIG. 17); assay type: in vivo
Source text: FIG. 17. […] Tumor volume is shown (y axis) at various time days post tumor challenge (x axis).

[14] = test system: Additional NSCLC cell lines; assay: Growth of additional NSCLC cell lines (FIG. 12); assay type: cell-based; conditions: growth compared to untreated cells
Source text: FIG. 12. […] Growth is shown on the y axis compared to untreated cells.

[15] = dog 28-day multi-dose toxicology assessment

Sequence of EGFR (Homo sapiens, UniProt P00533) (P00533 25-1210): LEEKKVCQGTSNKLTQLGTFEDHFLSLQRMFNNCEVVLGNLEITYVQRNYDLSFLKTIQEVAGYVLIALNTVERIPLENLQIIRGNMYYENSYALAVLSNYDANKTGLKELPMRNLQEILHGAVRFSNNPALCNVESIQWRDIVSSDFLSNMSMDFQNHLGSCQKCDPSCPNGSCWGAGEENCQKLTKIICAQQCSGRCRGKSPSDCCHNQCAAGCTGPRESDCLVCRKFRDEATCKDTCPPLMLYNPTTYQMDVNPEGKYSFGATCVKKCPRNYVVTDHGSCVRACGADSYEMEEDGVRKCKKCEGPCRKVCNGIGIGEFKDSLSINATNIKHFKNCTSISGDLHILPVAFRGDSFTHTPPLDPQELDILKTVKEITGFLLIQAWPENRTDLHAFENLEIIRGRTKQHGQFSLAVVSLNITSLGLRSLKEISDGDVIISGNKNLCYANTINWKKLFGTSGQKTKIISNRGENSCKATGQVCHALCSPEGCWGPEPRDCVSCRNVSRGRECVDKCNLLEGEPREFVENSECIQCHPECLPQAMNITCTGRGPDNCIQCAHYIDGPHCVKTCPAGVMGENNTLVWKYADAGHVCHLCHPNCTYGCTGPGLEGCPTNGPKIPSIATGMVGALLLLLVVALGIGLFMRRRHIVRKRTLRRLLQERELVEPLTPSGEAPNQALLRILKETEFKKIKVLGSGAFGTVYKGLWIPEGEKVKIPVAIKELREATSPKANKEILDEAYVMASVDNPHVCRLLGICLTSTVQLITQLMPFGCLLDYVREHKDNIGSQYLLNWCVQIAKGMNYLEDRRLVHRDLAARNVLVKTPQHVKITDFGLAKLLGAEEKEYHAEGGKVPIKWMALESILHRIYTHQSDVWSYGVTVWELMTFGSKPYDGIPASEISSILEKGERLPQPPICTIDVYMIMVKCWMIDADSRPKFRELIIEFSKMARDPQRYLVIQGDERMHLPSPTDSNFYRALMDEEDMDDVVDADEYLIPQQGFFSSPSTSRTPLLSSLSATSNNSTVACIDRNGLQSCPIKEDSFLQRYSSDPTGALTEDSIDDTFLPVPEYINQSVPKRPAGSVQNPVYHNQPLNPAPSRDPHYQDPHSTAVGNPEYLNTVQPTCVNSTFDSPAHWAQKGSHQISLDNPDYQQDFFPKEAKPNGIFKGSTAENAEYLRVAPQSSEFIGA

CC(Cc1ccc(O)c(O)c1)C(C)Cc1ccc(O)c(O)c1 (centres unmarked) [NDGA, nordihydroguaiaretic acid]
Safety and tolerability [1]: safe and well tolerated | Inhibition of EGFR / substrate phosphorylation (EGFR [2]): inhibits substrate phosphorylation; also recorded: inhibition | LD50 at 14 days (in vivo [3]): > 5000 mg/kg | Efficacy in xenografts (xenografts of Table 3): efficacy was shown | Inhibition of cMet (c-met): inhibition | Inhibition of IGF1R (IGF1R [4]): inhibition | Total protein level of EGFR (EGFR [5]): reduction in total protein levels | Total protein level of IGF-IR (IGF-IR): reduction in total protein levels | Necropsy findings (Beagle dogs [6]; [15]): intestinal mucosal reddening | No observable effect level (NOEL) (Beagle dogs [6]; [15]): 60 mg/kg/day | Tolerability of all of the other doses (Beagle dogs [6]; dog, in vivo): well-tolerated in this | Mechanism of action of IGF-1R inhibition (IGF1R [7]; varying PGT substrate, 20 μg/ml NDGA): substrate competition | Vmax (IGF1R [7]; with NDGA (+TT100), 10 nM IGF-1, 20 μM ATP): 2.0 pmol/min | Amount of ATP bound to IGF-1R (IGF1R [8]; 30 μM NDGA): unchanged | Interference with binding of a labeled ATP analog to recombinant IGF-1R (IGF1R [8]; any concentration of NDGA up to 100 μM): did not interfere; also recorded: does not interfere | Tolerability in the repeated dose phase (Beagle dogs [9]; dog, in vivo, po, 300 mg/kg/day): fairly well tolerated, | Clinical findings in the escalation phase (Beagle dogs [9]; dogs, single oral (capsule) doses of 600 and 1200 mg/kg): Significant emesis, | Total protein level of HER2 (HER2): reduction in total protein levels | LD50 at 14 days (in vivo [10]; female): 1650 mg/kg | LD50 at 14 days (in vivo [10]; male): 2500 mg/kg | Total protein level of Met (Met): reduction in total protein levels | Findings at 150 and 500 mg/kg/day (Sprague Dawley rats; 150 and 500 mg/kg/day, 28 days, listed as TT-100): Stomach and duodenal hypertrophy/alterations; also recorded: adverse events | No-effect dose level (Sprague Dawley rats; oral (gavage), once daily for 28 days): 15 mg/kg/day | Activity on colony formation in soft agar (H1975 NSCLC cells): active | No-effect level [11]: dose of 1000 mg/kg | Tumor growth (tumor volume) compared to control [12]: inhibited growth | Tumor growth (tumor volume) compared to control (NSCLC xenograft): inhibit tumor growth | Inhibition of KDR (VEGFR2) (KDR (VEGFR2)): inhibition | Sensitivity of growth to NDGA [13]: sensitive | Tumor growth (tumor volume) compared to control (pancreatic xenograft): inhibited growth | Tumor growth (tumor volume) compared to control (breast xenograft): inhibited growth | Sensitivity of growth to NDGA [14]: sensitive

Reference: patent US9381246B2, “Cancer therapy” (TriAct Therapeutics, Inc., priority 2013, dated 2016)
